Article PMC9598656, “In Vitro Activity of Robenidine Analogues NCL259 and NCL265 against Gram-Negative Pathogens” (Antibiotics, 2022)

Experiments:
K. pneumoniae ATCC 33495 = test: MIC, broth micro-dilution; format: cell-based, Klebsiella pneumoniae; conditions: Klebsiella pneumoniae, ATCC33495, read-out: MIC, Single Drug
Method: (§1) A variety of Gram-negative reference strains (E. coli ATCC 25922, E. coli ATCC 10763, P. aeruginosa PAO1, P. aeruginosa ATCC 27853, A. baumannii ATCC 12457, A. baumannii ATCC 19606, K. pneumoniae ATCC 4352 and K. pneumoniae ATCC 33495) were used for initial screening and combination testing with PMB. The organisms were speciated using biochemical testing and MALDI-TOF mass spectrometry (Bruker, Preston, VIC, Australia). Activity testing of NCL259 and NCL265 was also carried out on 51 extraintestinal clinical E. coli isolates from companion animals, and 83 porcine and bovine enterotoxigenic E. coli (ETEC) isolates from the Australian Centre for Antimicrobial Resistance Ecology collection. E. coli wild-type (BW 25113) and its mutant BW 25113∆AcrB, in which the inner membrane component AcrB of the tripartite multidrug efflux system AcrA/AcrB/TolC has been deleted, were obtained from the bacterial collection held at Health and Biomedical Innovation, Clinical and Health Sciences, The University of South Australia. All isolates were cultured on sheep blood agar (SBA) plates at 37 °C for 18 h before being subcultured into Luria Bertaini (LB) (Oxoid, Scoresby, VIC, Australia) broth and grown to A600nm = 0.5 (equivalent to approx. 1.5 × 10^8 colony-forming units (CFU)/mL).
(§2) MICs for NCL259 and NCL265 (serial two-fold dilutions commencing at 256 µg/mL) were determined (in duplicate) in round bottom 96–well microtitre trays (Sarstedt 82.1582.001), using the broth micro-dilution method recommended by the Clinical and Laboratory Standards Institute (CLSI). We have shown previously that robenidine can chelate calcium ions from cation-adjusted Mueller-Hinton broth, which causes the loss of activity of robenidine. Therefore, LB broth was used in this study. Additionally, considering the low solubility of robenidine and its analogues in aqueous solutions, two-fold serial dilutions of stock solutions of these compounds were prepared in 100% DMSO [21]. The MIC for ampicillin against each isolate was determined for each test to serve as an internal quality control. The MICs of isolates were determined by visual reading and using an EnSpire Multimode Plate Reader 2300 at A600nm.

K. pneumoniae ATCC 4352 [1] = test: MIC, broth micro-dilution; format: cell-based, Klebsiella pneumoniae; conditions: Klebsiella pneumoniae, ATCC4352, read-out: MIC, Single Drug
Method: as §1, §2

P. aeruginosa PAO1 = test: Checkerboard assay with PMB; format: cell-based, Pseudomonas aeruginosa; conditions: for MIC, Combination: NCL259 or NCL265 with PMB; for Combination Effect / FICI: with PMB
Method: (§3) MICs of NCL259 or NCL265 in the presence of the efflux pump inhibitor, PAβN were determined using a checkerboard assay. […] Briefly, a two-fold serial dilution of each antimicrobial solution was prepared in its appropriate solvent (e.g., DMSO for robenidine analogues and Milli-Q water for PAβN), and 1 μL of each dilution was added from wells 12 to 3 (12.8–0.25 μg/mL for robenidine analogues, and 32–2 μg/mL for PAβN). Thereafter, 89 μL of LB broth was added to each well followed by the addition of 10 μL of bacterial suspension (1–5 × 10^6 CFU/mL) to each well. In this manner, the final concentration of DMSO in each well was 1%. The plate was subsequently incubated at 37 °C for 24 h. The resazurin assay was used for assessment of drug susceptibility of NCL259 and NCL265 (Supplementary Table S1–S6). The same method was also used to test the MICs of NCL259 or NCL265 in the presence of PMB against a range of Gram-negative reference strains (E. coli ATCC 25922, E. coli ATCC 10763, P. aeruginosa PAO1, P. aeruginosa ATCC 27853, A. baumannii ATCC 12457, A. baumannii ATCC 19606, K. pneumoniae ATCC 4352 and K. pneumoniae ATCC 33495). Stock solutions were prepared prior to use (25.6–0.25 mg/mL for robenidine analogues; 12.8–0.25 mg/mL for PMB). The interaction of two antibiotics was calculated as the fractional inhibitory concentration index (FICI) using the following formula:(1) FICI=MICA in combination/MICA alone+MICB in combination/MICB alone where A is NCL259 or NCL265 and B is PAβN or PMB. According to FICI calculations, the interaction between two compounds were interpreted as follows: synergistic (FICI ≤ 0.5); additive or partially synergistic (0.5 < FICI ≤ 1); indifferent (1 < FICI ≤ 4); and antagonistic (FICI > 4), as described previously. The dose reduction index (DRI) was used to describe the difference between the effective doses of NCL259 or NCL265 in combination with PMB or PAβN in comparison to their individual doses, using the following formula:(2) DRI=MICA alone/MICA in combination
(§4) Evaluation of DRI is important clinically because it can allow the dose of a potentially toxic drug to be lowered in combination with another compound without reducing the drug’s efficacy. A DRI higher than 1 is viewed as beneficial.

P. aeruginosa ATCC 27853 = test: Checkerboard assay with PMB; format: cell-based, Pseudomonas aeruginosa; conditions: for MIC, Combination: NCL259 or NCL265 with PMB; for Combination Effect / FICI: with PMB
Method: as §3, §4

[2] = system: Gram-negative reference strains; test: Checkerboard with PMB over the reference strains; format: cell-based; conditions: sub-inhibitory PMB
Method: as §3, with “Stock solutions were prepared prior to use (25.6–0.25 mg/mL for robenidine analogues; 12.8–0.25 mg/mL for PMB).” left out, “According to FICI calculations, the interaction between two compounds were interpreted as follows: synergistic (FICI ≤ 0.5); additive or partially synergistic (0.5 < FICI ≤ 1); indifferent (1 < FICI ≤ 4); and antagonistic (FICI > 4), as described previously. The dose reduction index (DRI) was used to describe the difference between the effective doses of NCL259 or NCL265 in combination with PMB or PAβN in comparison to their individual doses, using the following formula:(2) DRI=MICA alone/MICA in combination” left out

K. pneumoniae 13GNB–429 = test: Checkerboard assay with PAβN; format: cell-based, Klebsiella pneumoniae; conditions: for concentration at the marked interaction: resazurin
Method: as §3, §4

K. pneumoniae 13GNB–550 = test: Checkerboard assay with PAβN; format: cell-based, Klebsiella pneumoniae; conditions: for concentration at the marked interaction: resazurin
Method: as §3, §4

K. pneumoniae ATCC 4352 [3] = test: Checkerboard assay with PMB; format: cell-based, Klebsiella pneumoniae; conditions: for MIC, Combination: NCL259 or NCL265 with PMB; for Combination Effect / FICI: with PMB
Method: as §3, §4

[4] = system: Gram-negative human and animal isolates, including human KAPE pathogens; test: MIC range over all isolates; format: cell-based; conditions: variety of Gram-negative human and animal isolates (discussion)
Method: A variety of Gram-negative reference strains (E. coli ATCC 25922, E. coli ATCC 10763, P. aeruginosa PAO1, P. aeruginosa ATCC 27853, A. baumannii ATCC 12457, A. baumannii ATCC 19606, K. pneumoniae ATCC 4352 and K. pneumoniae ATCC 33495) were used for initial screening and combination testing with PMB. The organisms were speciated using biochemical testing and MALDI-TOF mass spectrometry (Bruker, Preston, VIC, Australia). Activity testing of NCL259 and NCL265 was also carried out on 51 extraintestinal clinical E. coli isolates from companion animals, and 83 porcine and bovine enterotoxigenic E. coli (ETEC) isolates from the Australian Centre for Antimicrobial Resistance Ecology collection. […]
MICs for NCL259 and NCL265 (serial two-fold dilutions commencing at 256 µg/mL) were determined (in duplicate) in round bottom 96–well microtitre trays (Sarstedt 82.1582.001), using the broth micro-dilution method recommended by the Clinical and Laboratory Standards Institute (CLSI). […] The MIC for ampicillin against each isolate was determined for each test to serve as an internal quality control. The MICs of isolates were determined by visual reading and using an EnSpire Multimode Plate Reader 2300 at A600nm.

[5] = K. pneumoniae 13GNB–429, PAβN + NCL259
[6] = Table S1, NCL259 + PAβN, replicate 1
[7] = Table S1, NCL259 + PAβN, replicate 2
[8] = K. pneumoniae 13GNB–550, PAβN + NCL259
[9] = Table S2, NCL259 + PAβN, replicate 2
[10] = K. pneumoniae 13GNB–429, PAβN + NCL265
[11] = Table S4, NCL265 + PAβN, replicate 1
[12] = Table S4, NCL265 + PAβN, replicate 2
[13] = K. pneumoniae 13GNB–550, PAβN + NCL265
[14] = Table S5, NCL265 + PAβN, replicate 1
[15] = Table S5, NCL265 + PAβN, replicate 2

[H]/N=C(\N)NN=C(CC1CCCCC1)c1ccc(Cl)cc1 [NCL259, (E)-2-(1-(4-chlorophenyl)-2-cyclohexylethylidene)hydrazine-1-carboximidamide]
MIC (K. pneumoniae ATCC 33495): 64 µg/mL | MIC (K. pneumoniae ATCC 4352 [1]): 8 µg/mL | MIC, Combination (P. aeruginosa PAO1): 1 µg/mL | Dose Reduction Index (DRI) PMB:NCL259 (P. aeruginosa PAO1; PMB + NCL259): 64 | Combination Effect (P. aeruginosa PAO1): Additivity (additive or partially synergistic, 0.5 < FICI ≤ 1) | FICI (P. aeruginosa PAO1): 0.516 | MIC, Combination (P. aeruginosa ATCC 27853): 2 µg/mL | Dose Reduction Index (DRI) PMB:NCL259 (P. aeruginosa ATCC 27853; PMB + NCL259): 32 | Combination Effect (P. aeruginosa ATCC 27853): Additivity (additive or partially synergistic, 0.5 < FICI ≤ 1) | FICI (P. aeruginosa ATCC 27853): 0.531 | reduction of MIC in combination with PMB [2]: 8- to 256 fold | DRI PAβN:NCL259 (K. pneumoniae 13GNB–429; K. pneumoniae 13GNB–429): 16 | Combination Effect (K. pneumoniae 13GNB–429; [5]): Synergism (synergistic, FICI ≤ 0.5) | MIC, Combination (K. pneumoniae 13GNB–429; [5]): 16 µg/mL | interaction (K. pneumoniae 13GNB–429; [6]): synergistic (synergistic (FICI ≤ 0.5)) | interaction (K. pneumoniae 13GNB–429; [7]): synergistic (synergistic (FICI ≤ 0.5)) | concentration at the marked interaction (K. pneumoniae 13GNB–429; [6]): 16 µg/mL | concentration at the marked interaction (K. pneumoniae 13GNB–429; [7]): 16 µg/mL | DRI PAβN:NCL259 (K. pneumoniae 13GNB–550; K. pneumoniae 13GNB–550): 32 | Combination Effect (K. pneumoniae 13GNB–550; [8]): Additivity (additive or partially synergistic, 0.5 < FICI ≤ 1) | FICI (K. pneumoniae 13GNB–550; [8]): 0.531 | MIC, Combination (K. pneumoniae 13GNB–550; [8]): 8 µg/mL | interaction (K. pneumoniae 13GNB–550; [9]): synergistic (synergistic (FICI ≤ 0.5)) | concentration at the marked interaction (K. pneumoniae 13GNB–550; Table S2, NCL259 + PAβN, replicate 1): 16 µg/mL | concentration at the marked interaction (K. pneumoniae 13GNB–550; [9]): 16 µg/mL | MIC, Combination (K. pneumoniae ATCC 4352 [3]): 1 µg/mL | Dose Reduction Index (DRI) PMB:NCL259 (K. pneumoniae ATCC 4352 [3]; PMB + NCL259): 8 | Combination Effect (K. pneumoniae ATCC 4352 [3]): Synergism (synergistic, FICI ≤ 0.5) | FICI (K. pneumoniae ATCC 4352 [3]): 0.375

[H]/N=C(\N)NN=C(CCCCCC)c1ccc(Cl)cc1 [NCL265, (E)-2-(1-(4-chlorophenyl)heptylidene)hydrazine-1-carboximidamide]
MIC (K. pneumoniae ATCC 33495): 64 µg/mL | MIC (K. pneumoniae ATCC 4352 [1]): 2 µg/mL | MIC range [4]: 2 to 32 µg/mL | MIC, Combination (P. aeruginosa PAO1): 0.25 µg/mL | Dose Reduction Index (DRI) PMB:NCL265 (P. aeruginosa PAO1; PMB + NCL265): 256 | Combination Effect (P. aeruginosa PAO1): Additivity (additive or partially synergistic, 0.5 < FICI ≤ 1) | FICI (P. aeruginosa PAO1): 0.504 | MIC, Combination (P. aeruginosa ATCC 27853): 0.5 µg/mL | Dose Reduction Index (DRI) PMB:NCL265 (P. aeruginosa ATCC 27853; PMB + NCL265): 64 | Combination Effect (P. aeruginosa ATCC 27853): Additivity (additive or partially synergistic, 0.5 < FICI ≤ 1) | FICI (P. aeruginosa ATCC 27853): 0.516 | reduction of MIC in combination with PMB [2]: 4- to 256 fold | DRI PAβN:NCL265 (K. pneumoniae 13GNB–429; K. pneumoniae 13GNB–429): 64 | Combination Effect (K. pneumoniae 13GNB–429; [10]): Additivity (additive or partially synergistic, 0.5 < FICI ≤ 1) | FICI (K. pneumoniae 13GNB–429; [10]): 0.516 | MIC, Combination (K. pneumoniae 13GNB–429; [10]): 4 µg/mL | interaction (K. pneumoniae 13GNB–429; [11]): synergistic (synergistic (FICI ≤ 0.5)) | interaction (K. pneumoniae 13GNB–429; [12]): synergistic (synergistic (FICI ≤ 0.5)) | concentration at the marked interaction (K. pneumoniae 13GNB–429; [11]): 8 µg/mL | concentration at the marked interaction (K. pneumoniae 13GNB–429; [12]): 8 µg/mL | DRI PAβN:NCL265 (K. pneumoniae 13GNB–550; K. pneumoniae 13GNB–550): 64 | Combination Effect (K. pneumoniae 13GNB–550; [13]): Additivity (additive or partially synergistic, 0.5 < FICI ≤ 1) | FICI (K. pneumoniae 13GNB–550; [13]): 0.516 | MIC, Combination (K. pneumoniae 13GNB–550; [13]): 4 µg/mL | interaction (K. pneumoniae 13GNB–550; [14]): synergistic (synergistic (FICI ≤ 0.5)) | interaction (K. pneumoniae 13GNB–550; [15]): synergistic (synergistic (FICI ≤ 0.5)) | concentration at the marked interaction (K. pneumoniae 13GNB–550; [14]): 8 µg/mL | concentration at the marked interaction (K. pneumoniae 13GNB–550; [15]): 8 µg/mL | MIC, Combination (K. pneumoniae ATCC 4352 [3]): 0.5 µg/mL | Dose Reduction Index (DRI) PMB:NCL265 (K. pneumoniae ATCC 4352 [3]; PMB + NCL265): 4:4 | Combination Effect (K. pneumoniae ATCC 4352 [3]): Synergism (synergistic, FICI ≤ 0.5) | FICI (K. pneumoniae ATCC 4352 [3]): 0.5
